These are literature values, as cited in patent US10144908B2, “Liquid soap having enhanced antibacterial activity” (Conopco, Inc., priority 2013, dated 2018).

The conditions of this series: in water at 25° C.

For `O=C([O-])CC(O)(CC(=O)[O-])C(=O)[O-].[Ag+].[Ag+].[Ag+]` [Silver citrate], the Ksp was 2.5e-16 mol/L.
